How the values were obtained:
[1] = target: T1, Prostaglandin G/H synthase 1 (Ovis aries) (UniProt P05979); test: Inhibition of ovine COX1 at 5 uM using arachidonic acid as substrate preincubated for 10 mins followed by substrate addition measured after 5 mins by ELISA relative to control
T1 sequence (whole entry): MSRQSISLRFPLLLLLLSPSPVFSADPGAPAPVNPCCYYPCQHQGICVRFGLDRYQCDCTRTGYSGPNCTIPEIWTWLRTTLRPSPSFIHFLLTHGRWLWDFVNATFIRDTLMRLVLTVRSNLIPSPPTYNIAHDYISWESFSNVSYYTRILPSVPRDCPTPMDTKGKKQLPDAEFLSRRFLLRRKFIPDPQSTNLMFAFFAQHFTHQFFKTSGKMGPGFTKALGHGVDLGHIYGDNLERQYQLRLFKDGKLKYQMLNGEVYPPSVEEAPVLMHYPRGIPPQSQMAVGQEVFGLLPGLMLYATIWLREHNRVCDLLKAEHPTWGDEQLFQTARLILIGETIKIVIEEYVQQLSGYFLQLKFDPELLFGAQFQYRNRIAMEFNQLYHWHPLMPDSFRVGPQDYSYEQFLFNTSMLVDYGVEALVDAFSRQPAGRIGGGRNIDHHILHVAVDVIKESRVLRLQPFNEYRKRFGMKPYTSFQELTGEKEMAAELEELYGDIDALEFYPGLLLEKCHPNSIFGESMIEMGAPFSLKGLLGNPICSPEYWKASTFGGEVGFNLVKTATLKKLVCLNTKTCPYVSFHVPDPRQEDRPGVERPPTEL

Ovis aries = species on record: Ovis aries; test: Selectivity ratio of compound effect for inhibition of ovine COX2 to compound effect for inhibition of ovine COX1
Rattus norvegicus = test: Anti-inflammatory activity in Sprague-Dawley rat assessed as inhibition of carrageenan-induced edema in hind paw administered ip measured after 4 to 6 hrs relative to control; type: functional
[2] = target: T2, Prostaglandin G/H synthase 1 (Ovis aries, UniProt P05979); test: Inhibition of ovine COX1 using arachidonic acid as substrate preincubated for 10 mins followed by substrate addition measured after 5 mins by ELISA
T2 sequence (P05979 whole entry): T1 sequence (whole entry)

Q: How did the inhibition [1] turn out when `CC1=NN(c2ccccc2)C(=O)/C1=C\c1ccc2c(c1)OCO2` was run?
A: Its inhibition is 25%.

Q: And the Selectivity ratio (Ovis aries)?
A: The Selectivity ratio was 0.67.

Q: What about the “inhibition (INH)” value (Rattus norvegicus) of the same compound?
A: Its value is 20.3%.

Q: What about the IC50 [2] of the same compound?
A: The IC50 was 22200 nM.

Q: `CC1=NN(c2ccccc2)C(=O)C1C(c1ccc2c(c1)OCO2)N1CCN(C(c2ccc3c(c2)OCO3)C2C(=O)N(c3ccccc3)N=C2C)CC1` (stereo not given) was tested. Which inhibition [1] did it give?
A: The inhibition was 42.9%.

Q: What about the Selectivity ratio (Ovis aries) of the same compound?
A: Its Selectivity ratio is 1.2.

Q: What about the “inhibition (INH)” value (Rattus norvegicus) of the same compound?
A: Its value is 21.1%.

Q: What about the IC50 [2] of the same compound?
A: Its IC50 is greater than 5000 nM.

Q: For `CC1=NN(c2ccccc2)C(=O)C1C(c1c(C)c(=O)n(-c2ccccc2)n1C)N1CCN(C(c2c(C)c(=O)n(-c3ccccc3)n2C)C2C(=O)N(c3ccccc3)N=C2C)CC1` (stereo not given), which inhibition [1] is on record?
A: Its inhibition is 87.4%.

Q: And the Selectivity ratio (Ovis aries)?
A: The Selectivity ratio was 0.87.

Q: What about the “inhibition (INH)” value (Rattus norvegicus) of the same compound?
A: Its value is 49.5%.

Q: And the IC50 [2]?
A: Its IC50 is 1160 nM.

Q: Which inhibition [1] does the source give for `Cc1nn(-c2ccccc2)c(O)c1C(c1c(-c2ccccc2)[nH]c2ccccc12)c1c(C)c(=O)n(-c2ccccc2)n1C` (stereo not given) here?
A: The inhibition was 69.1%.

Q: And the Selectivity ratio (Ovis aries)?
A: The Selectivity ratio was 0.79.

Q: What about the “inhibition (INH)” value (Rattus norvegicus) of the same compound?
A: Its value is 35.9%.

Q: And the IC50 [2]?
A: Its IC50 is greater than 5000 nM.

Q: With `Cc1c(C(CCCC(c2c(C)n(C)n(-c3ccccc3)c2=O)c2c(C)n(C)n(-c3ccccc3)c2=O)c2c(C)n(-c3ccccc3)n(C)c2=O)c(=O)n(-c2ccccc2)n1C` (stereo not given) as the compound, how does the inhibition [1] read?
A: Its inhibition is 81.3%.

Q: What about the Selectivity ratio (Ovis aries) of the same compound?
A: The Selectivity ratio was 0.48.

Q: What about the “inhibition (INH)” value (Rattus norvegicus) of the same compound?
A: Its value is 75%.

Q: What about the IC50 [2] of the same compound?
A: The IC50 was 1460 nM.

Q: How did the “inhibition (INH)” value (Rattus norvegicus) turn out when `Cc1ccc(-c2cc(C(F)(F)F)nn2-c2ccc(S(N)(=O)=O)cc2)cc1` [CELECOXIB] was run?
A: Its value is 89%.

Q: For `Cc1c(CN2CCN(CCO)CC2)c(=O)n(-c2ccccc2)n1C`, which inhibition [1] is on record?
A: Its inhibition is 73.4%.

Q: What about the Selectivity ratio (Ovis aries) of the same compound?
A: The Selectivity ratio was 1.05.

Q: What about the “inhibition (INH)” value (Rattus norvegicus) of the same compound?
A: Its value is 48.2%.

Q: And the IC50 [2]?
A: The IC50 was greater than 5000 nM.

Q: How did the inhibition [1] turn out when `CC1=NN(c2ccccc2)C(=O)C1C(Nc1c(C)n(C)n(-c2ccccc2)c1=O)c1ccc2c(c1)OCO2` (stereo not given) was run?
A: Its inhibition is 84.2%.

Q: And the Selectivity ratio (Ovis aries)?
A: Its Selectivity ratio is 0.82.

Q: What about the “inhibition (INH)” value (Rattus norvegicus) of the same compound?
A: Its value is 48.3%.

Q: What about the IC50 [2] of the same compound?
A: Its IC50 is 2520 nM.

Q: For `CC1=NN(c2ccccc2)C(=O)C1C(c1c(C)n(C)n(-c2ccccc2)c1=O)N1CCCCC1` (stereo not given), which inhibition [1] is on record?
A: The inhibition was 78%.

Q: What about the Selectivity ratio (Ovis aries) of the same compound?
A: The Selectivity ratio was 0.95.

Q: And the “inhibition (INH)” value (Rattus norvegicus)?
A: The value was 40.5%.

Q: And the IC50 [2]?
A: The IC50 was 1330 nM.

Q: How did the inhibition [1] turn out when `CC1=NN(c2ccccc2)C(=O)C1C(Nc1c(C)n(C)n(-c2ccccc2)c1=O)c1c(C)n(C)n(-c2ccccc2)c1=O` (stereo not given) was run?
A: The inhibition was 58.8%.

Q: And the Selectivity ratio (Ovis aries)?
A: Its Selectivity ratio is 1.01.

Q: What about the “inhibition (INH)” value (Rattus norvegicus) of the same compound?
A: Its value is 39.4%.

Q: What about the IC50 [2] of the same compound?
A: The IC50 was greater than 5000 nM.

Q: For `Cc1c(CN2CCC(CCCC3CCN(Cc4c(C)n(C)n(-c5ccccc5)c4=O)CC3)CC2)c(=O)n(-c2ccccc2)n1C`, which inhibition [1] is on record?
A: The inhibition was 88.5%.

Q: What about the Selectivity ratio (Ovis aries) of the same compound?
A: The Selectivity ratio was 0.78.

Q: What about the “inhibition (INH)” value (Rattus norvegicus) of the same compound?
A: The value was 85.4%.

Q: And the IC50 [2]?
A: The IC50 was 1230 nM.

Q: With `CC1=NN(c2ccccc2)C(=O)/C1=C\c1c(C)n(C)n(-c2ccccc2)c1=O` as the compound, how does the inhibition [1] read?
A: The inhibition was 87%.

Q: And the Selectivity ratio (Ovis aries)?
A: Its Selectivity ratio is 0.87.

Q: What about the “inhibition (INH)” value (Rattus norvegicus) of the same compound?
A: Its value is 49.1%.

Q: What about the IC50 [2] of the same compound?
A: Its IC50 is greater than 5000 nM.

From ChEMBL document CHEMBL4184271, “Design, synthesis, anti-inflammatory activity and molecular docking of potential novel antipyrine and pyrazolone analogs as cyclooxygenase enzyme (COX) inhibitors” (Bioorg Med Chem Lett, 2018)
